From patent US8809268B2, “Combination therapy to combat helminth resistance” (The Regents of The University of California, priority 2008, dated 2014)
Converted amounts (≈) assume the structure as drawn. “And” between values parts separate entries of the source, which are not always exact repeats. Equal values may be shown once. Read-outs that look alike come from different tables or passages of the source.

How the values were obtained:
[1] = system: C. elegans; test: whole plant or invertebrate; settings: for LC50: 6 days at 25° C.; for viability of trb mutant nematodes at concentrations where most or all wild-type nematodes were dead: tribendimidine: trb-1 to trb-4, 100 μg/ml and greater, levamisole: trb-1, trb-2, trb-4, 1000 μM or greater
Method: LC50 assays determine the inhibitory concentration at which 50% of the nematodes are dead under certain conditions as calculated using the PROBIT algorithm. LC50 assays start with wild-type (N2) L4 nematodes. To get L4 nematodes, synchronous L1-staged nematodes (as per developmental assay) were plated onto OP50-seeded ENG plates (see below) and put at 20° for 44 h. The now L4-staged larvae were then washed off with water, spun down at 1800 rpm for 40 seconds, re-suspended with SS Media, spun again, and re-suspended in special SS Media to a concentration of 4 nematodes/μl. The assay was set up in a 48-well microtiter plate. Each well contained: 5 μl L4 nematodes (˜20 total), 40 μl of OP50 bacteria as a food source (see below for preparation), 20 μl of tribendimidine (prepared as below), 5 μl of FUdR (8 mM stock; see below), and SS Medium for a total of 200 μl. Each well was set up in triplicate. The plates were wrapped in moist paper towels, placed in a covered plastic box, and incubated at 25° C. for 6 days. The plates were then removed from the incubator and the nematodes transferred with a glass pipette into the well of a spot glass. Each nematode was then scored for dead or alive as follows. Using a thin platinum wire, each nematode was touched to see if it moved within 10 seconds of being touched. If it moved, it was scored as alive. If not, the touch was repeated a second time. If it moved after the second touch, it was scored as alive. […] The number of alive and dead nematodes was tallied for each well. The data from triplicate wells were combined into a single data point. The experiment was repeated for a total of three times on three different days (so a total of 9 wells per data point).
A tribendimidine stock solution was prepared at 4 mg/ml at 1% DMSO in SS Media (final concentration in the well will be 0.1% DMSO). 1% DMSO in SS Media was used as a dilutant to set up serial dilutions. For example, tube 1 contained 160 μl of 4 mg/ml Trib in 1% DMSO. Tube 2 contained 80 μl of the solution in Tube 1, diluted with 80 μl 1% DMSO (1:1 dilution; tube 2). Tube 3 contained 80 μl of the solution from Tube 2, diluted with 80 microliters 1% DMSO, etc. . . .
The trb mutant nematodes were isolated in the forward genetic screen for tribendimidine resistance described above. The LC50 assay was performed as previously described. A levamisole stock solution (100 mM stock) was prepared in water. Dilutions (2-fold) were made in SS Media accordingly such that 20 μl aliquots were added per well to give rise to the desired concentration.

[2] = system: C. elegans; test: whole plant or invertebrate; assay type: in vivo, Caenorhabditis elegans; settings: for IC50: Caenorhabditis elegans, 60 h
[3] = system: C. elegans; test: Brood size assay; assay type: in vivo, Caenorhabditis elegans; settings: bre-5 mutant vs wild-type, 200 μg/ml tribendimidine, P<0.01
Method: L4 staged worms were used. One worm was picked up with an eyelash pick and placed in SS Media in a 48-well plate. […] The total volume was 200 μl. Each drug concentration was repeated in triplicate. The plates were incubated for 64 h at 25° C. The progeny were then transferred out of the well with a pipette onto an empty NG agar plate for counting. The experiment was repeated a total of three times.

[4] = system: wild-type C. elegans; assay type: in vivo, Caenorhabditis elegans
[5] = system: C. elegans; test: Visual assay on tribendimidine, levamisole or pyrantel plates; settings: tribendimidine and levamisole plates 100 μg/ml, pyrantel 100 mM stock 1:50 in agar
Method: Tribendimidine plates: stock solution (4 mg/ml) in water was prepared and added into standard C. elegans NG agar media (2.5 ml/100 ml) to a final concentration of 100 μg/ml. The mixture was poured into 35 mm plates (4 ml/plate). The plates were stored up to one week at 4° C. The plates were spread with OP50, a laboratory strain of E. coli commonly used as a food source for C. elegans. Resistant=good health and motility; susceptible=contracted, pale color, move slowly.

[6] = system: C. elegans; test: Developmental assay on Cry14A dose response plates +/- levamisole; assay type: in vivo, Caenorhabditis elegans; settings: N2 wild-type, levamisole 0.75 μg/ml
Method: Similar experiments with a strain that produces Cry14A, alone and in combination with levamisole were performed. […] The Bt strain used in these experiments expressed Cry14A and two insecticidal Cry proteins (Cry34A and Cry35A) that are not expected to affect nematodes. […] To confirm this conclusion, an independent test of synergy between levamisole and Cry14A was carried out. In these experiments, N2 wild-type worms were plated onto Cry14A plates+/−levamisole.

[7] = Caenorhabditis elegans, 144 h, bre-2 mutant (Cry5B-resistant)
[8] = Caenorhabditis elegans, 144 h, bre-5 (ye17) mutant (Cry5B-resistant)
[9] = Caenorhabditis elegans, 144 h, wild-type (N2), L4 nematodes
[10] = combination of Cry5B and nAChR agonist, 1:1 ratio (μg/ml)
[11] = trb-1, trb-2, trb-3, trb-4 mutants
[12] = combination of Cry6A and levamisole
[13] = combination of Cry21A and levamisole, 3 days at 20° C.
[14] = combination of levamisole and Bt strain producing Cry14A (also Cry34A, Cry35A)

`C/C(=N\c1ccc(/N=C/c2ccc(/C=N/c3ccc(/N=C(\C)N(C)C)cc3)cc2)cc1)N(C)C` [Tribendimidine] gave an LC50 [1, 7] of 7.27 µg/mL (≈ 16.1 µM), an LC50 [1, 8] of 12.3 µg/mL (≈ 27.2 µM) and an LC50 [1, 9] of 54.4 µg/mL (≈ 120 µM). For the same compound, the “response of levamisole-resistant mutants in LC50 assay” value ([1]; mutants in 11 levamisole resistance genes (lev-1, lev-8, lev-9, lev-10, lev-11, unc-22, unc-29, unc-38, unc-50, unc-63, unc-74), high concentrations) was “resistant to tribendimidine”, the “viability of trb mutant nematodes at concentrations where most or all wild-type nematodes were dead” value [1] was “mostly or all alive” and the LC50 ([1]; wild-type (N2), L4 nematodes) was 58.372 µg/mL and 57.38 µg/mL. For the same compound, the IC50 ([2]; read-out: IC50 (inhibitory concentration at which 50% of the larvae are unable to complete development), wild-type (N2), L1 larvae, 60 h at 20° C.) was 18.4 µg/mL (≈ 40.6 µM), the IC50 ([2]; read-out: IC50 (larval development), bre-5 (ye17) mutant (Cry5B-resistant), 60 h at 20° C.) was 13.2 µg/mL (≈ 29.1 µM) and the “IC50 (inhibitory concentration at which 50% of the larvae are unable to complete development)” value ([2]; wild-type (N2), L1 larvae, 60 h at 20° C.) was 14.718 µg/mL. For the same compound, the “brood size, mutant relative to wild-type” value [3] was “reduced significantly”, the “synergism factor (CI value) at ED75” value [4, 10] was 0.28 and the “synergism factor (CI value) at ED90” value [4, 10] was 0.19. For the same compound, the “synergism factor (CI value) at ED95” value [4, 10] was 0.14, the “appearance of nematodes on drug plates” value [5, 11] was “resistant” and the “appearance of nematodes on drug plates” value ([5]; wild-type) was “sick”.

In the case of `CN1CCCN=C1/C=C/c1cccs1` [Pyrantel], the LC50 [1, 7] is reported as 10.9 µg/mL (≈ 52.7 µM), the LC50 [1, 8] is reported as 114 µg/mL (≈ 553 µM) and the LC50 [1, 9] is reported as 502 µg/mL (≈ 2430 µM). The LC50 ([1]; wild-type (N2), L4 nematodes) was 594.956 µg/mL (≈ 2880 µM), the “synergism factor (CI value) at ED75” value [4, 10] was 0.74 and the “synergism factor (CI value) at ED90” value [4, 10] was 0.73. The “synergism factor (CI value) at ED95” value [4, 10] was 0.72, the “appearance of nematodes on drug plates” value [5, 11] was “resistant” and the “appearance of nematodes on drug plates” value ([5]; wild-type) was “sick”.

With `c1ccc([C@H]2CN3CCSC3=N2)cc1` [Levamisole] the LC50 [1, 7] was 1.16 µg/mL (≈ 5.68 µM), the LC50 [1, 8] was 9.99 µg/mL (≈ 48.9 µM) and the LC50 [1, 9] was 19.6 µg/mL (≈ 96 µM). The “% alive” value ([1]; trb-3(ye494) nematodes at 1 mM (1000 μM) levamisole) was over 40%, the “viability of trb mutant nematodes at concentrations where most or all wild-type nematodes were dead” value [1] was “mostly or all alive” and the LC50 ([1]; wild-type (N2), L4 nematodes) was 11.712 µg/mL (≈ 57.3 µM). For the same compound, the “effect of levamisole alone on worm development” value [6] was “does not inhibit worm development”, the “synergism factor (CI value) at ED75” value [4, 10] was 0.29 and the “synergism factor (CI value) at ED90” value [4, 10] was 0.22. The “synergism factor (CI value) at ED95” value [4, 10] was 0.19, the “synergism factor (CI value) at ED75” value [4, 12] was 0.96 and the “synergism factor (CI value) at ED90” value [4, 12] was 0.86. For the same compound, the “synergism factor (CI value) at ED95” value [4, 12] was 0.82, the “synergism factor (CI value) at ED75” value [4, 13] was 0.52 and the “synergism factor (CI value) at ED90” value [4, 13] was 0.42. The “synergism factor (CI value) at ED95” value [4, 13] was 0.37, the “synergism factor (CI value) at ED75” value [4, 14] was 0.60 and the “synergism factor (CI value) at ED90” value [4, 14] was 0.50. The “synergism factor (CI value) at ED95” value [4, 14] was 0.44, the “appearance of nematodes on drug plates” value [5, 11] was “resistant” and the “appearance of nematodes on drug plates” value ([5]; wild-type) was “sick”.
